# Experimental data published in patent EP4763228A1, “PENTACYCLIC ACTIVE COMPOUND AND CONJUGATE THEREOF AND USE THEREOF” (Keymed Biosciences (Chengdu) Co., Ltd., priority 2023, dated 2025).
# Legend:
# Assay in all cases: In vitro proliferation inhibition of compounds of formula (GH), CCK8, 6 days
# Format in all cases: cell-based, human
# A549 tumor cells = tested on: A549 tumor cells
# Experimental: (§1) The object of this experiment is to test the in vitro killing activity of the compounds of the formula (GH) of the present disclosure on A549 tumor cells (human lung cancer cells, Beijing Tongren Hospital), SK-BR-3 tumor cells (human breast cancer cells, Wuhan Punosai, Cat. No. CL-0211) and NCI-N87 tumor cells (human gastric cancer cells, Cell Resource Center, Institute of Basic Medical Sciences, Chinese Academy of Medical Sciences, Cat. No. 3111C0001CCC000481). The cells were treated with different concentrations of the compounds in vitro and cultured for 6 days, then the in vitro activity of the test compounds was evaluated based on IC50 values by measuring the number of viable cells using CCK8 (Cell Counting Kit-8, Cat. No. TS547) reagent.
# (§2) Taking the test method of in vitro killing activity against A549 cells, SK-BR-3 cells and NCI-N87 cells as an example, the test was carried out as follows. […] After the cells were completely digested, 10 mL cell culture medium containing 10% FBS was added, the digested cells were eluted, centrifuged at 300 g for 5 min, and the supernatant was discarded. […]
# SK-BR-3 tumor cells = tested on: SK-BR-3 tumor cells
# Experimental: as §1, §2
# NCI-N87 tumor cells = tested on: NCI-N87 tumor cells
# Experimental: as §1, §2
# [1] = conclusion in words, comparison with Reference 1 at the same dose
smiles,measurement,setting,value
O=C1OCc2c(cc3n(c2=O)Cc2c-3nc3cc4c(cc3c2CCCCO)OCO4)[C@@]1(O)CC1CC1 [Compound 3],IC50,"A549 tumor cells; Homo sapiens, 144 h, A549 cells, 6 days, CCK8, 2% FBS",1.68 nM
same,inhibitory effect on the proliferation of A549 cells in vitro,A549 tumor cells; [1],significantly higher inhibitory effect
same,IC50,"SK-BR-3 tumor cells; Homo sapiens, 144 h, SK-BR-3 cells, 6 days, CCK8, 2% FBS",0.24 nM
same,inhibitory effect on the proliferation of SK-BR-3 cells in vitro,SK-BR-3 tumor cells; [1],significantly higher inhibitory effect
same,IC50,"NCI-N87 tumor cells; Homo sapiens, 144 h, NCI-N87 cells, 6 days, CCK8, 2% FBS",0.44 nM
same,inhibitory effect on the proliferation of NCI-N87 cells in vitro,NCI-N87 tumor cells; [1],significantly higher inhibitory effect
